The record followed here is US10981932B2, “Macrocyclic indole derivatives” (Bayer Aktiengesellschaft, priority 2016, dated 2021).

Where a name gives a salt, the structure may show the parent alone. Read-outs that look alike come from different tables or passages of the source.

The test system of series [1] is SUDHL5. Kind of series: Induction of caspase-3/7 activity (Caspase-Glo 3/7), SUDHL5. It is filed as cell-based. The conditions noted are these: caspase-3/7 induction, SUDHL5 cells, 3 h treatment, median. Put shortly: (§1)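 DLBCL cells treated with compounds for 3 h at 37 °C, then caspase-3/7 activity read by Caspase-Glo 3/7 luminescence. Medium-only background subtracted; EC50 fitted with C0 fixed at 1 and top set to the reference compound's maximal induction.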

The subject of the next series is A2780. Kind of series: Anti-proliferative effect (CellTiter-Glo, 72 h), A2780. The conditions noted are these: A2780 cells, median, read-out: IC50 antiproliferation assay A2780 [M] (median). It is filed as cell-based. Put shortly:
(§2)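 Cells were treated with compounds for 72 h at 37 °C in a humidified incubator, and viability was measured by CellTiter-Glo luminescence. A parallel day 0 plate, read the same way, gave the time zero baseline.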

Another series addresses MCL-1 (Homo sapiens, UniProt Q07820). Kind of series: Protein-protein interaction assay MCL-1/Noxa BH3 peptide (MCL-1 assay), TR-FRET. Format: binding. Conditions: MBP-MCL-1 / Noxa BH3-derived peptide, median. The method, boiled down:
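TR-FRET, 665/622 nm emission ratio (excitation 330–350 nm), measured MCL-1/Noxa complex formation. 1 nM MBP-MCL-1, 50 mM Tris/HCl pH 7, 0.1% BGG, 2 mM DTT. Incubation 1 h at 22 °C, then overnight at 4 °C. IC50 by 4-parameter regression, normalized to DMSO (0%) and no-MCL-1 (100%) controls.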
A general note: In TR-FRET formats the signal depends on donor and acceptor labels being close together.

The subject of series [2] is SUDHL5. Kind of series: Anti-proliferative effect (CellTiter-Glo, 72 h), SUDHL5. Conditions: SUDHL5 cells, antiproliferation, median, read-out: Antiproli SUDHL5 [M] (median). Format: cell-based. The method, boiled down: as §2
In general terms: In ATP-based viability assays light output follows the ATP content of the culture.

The subject of series [3] is SUDHL5. Kind of series: Induction of cytotoxicity (CellTiter-Glo, 5 h), SUDHL5.
The test system of series [4] is SUDHL10. As to the kind of experiment: Anti-proliferative effect (CellTiter-Glo, 72 h), SUDHL10. It is filed as cell-based. Conditions: SUDHL10 cells, antiproliferation, median, read-out: Antiproli SUDHL10 [M] (median). Put shortly: as §2
Series [5] has as its system SUDHL10. Kind of series: Induction of caspase-3/7 activity (Caspase-Glo 3/7), SUDHL10. Format: cell-based. The conditions noted are these: caspase-3/7 induction, SUDHL10 cells, 3 h treatment, median. Put shortly: as §1
Series [6] deals with SUDHL10. Kind of series: Induction of cytotoxicity (CellTiter-Glo, 5 h), SUDHL10.
[7] abbreviates: read-out: Cytotox SUDHL5 [M] (median), SUDHL5 cells, cytotoxicity induction, CellTiter-Glo, 5 h incubation, median.
Where [8] appears, read: Homo sapiens, SU-DHL10, 72 h, 72 h incubation.
Setting [9] is: Homo sapiens, SU-DHL10, 5 h, read-out: Cytotox SUDHL10 [M] (median), SUDHL10 cells, cytotoxicity induction, CellTiter-Glo, 5 h incubation, median.
The mark [10] stands for this setting: read-out: Cytotox SUDHL10 [M] (median), SUDHL10 cells, cytotoxicity induction, CellTiter-Glo, 5 h incubation, median.

MCL-1, sequence (Q07820 whole entry): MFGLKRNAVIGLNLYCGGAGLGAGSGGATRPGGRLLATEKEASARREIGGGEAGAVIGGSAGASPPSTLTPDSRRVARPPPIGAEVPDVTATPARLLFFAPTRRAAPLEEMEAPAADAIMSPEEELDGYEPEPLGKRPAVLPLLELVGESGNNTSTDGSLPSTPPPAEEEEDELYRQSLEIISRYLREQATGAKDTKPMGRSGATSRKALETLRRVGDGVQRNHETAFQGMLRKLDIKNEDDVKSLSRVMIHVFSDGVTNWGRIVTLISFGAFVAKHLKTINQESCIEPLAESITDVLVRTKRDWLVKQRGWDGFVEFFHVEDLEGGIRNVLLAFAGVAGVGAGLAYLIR

In the case of `Cc1ccc2c(C(C)CCOc3cccc4c3CCCC4)c(C(=O)O)n3c2c1-c1c(nn(C)c1C)COCCCC3` (racemic) [Example 363, 11,12,13-trimethyl-1-(4-((5,6,7,8-tetrahydronaphthalen-1-yl)oxy)butan-2-yl)-4,5,6,7,9,11-hexahydropyrazolo[4′,3′:9,10][1,6]oxaazacycloundecino[8,7,6-hi]indole-2-carboxylic Acid (Mixture of Stereoisomers)], the EC50 with SUDHL5 [1] (Homo sapiens, SU-DHL-5, 3 h) was found to be 20.2 µM; in the series with SUDHL10 [5] (Homo sapiens, SU-DHL10, 3 h) it was 23.1 µM. Besides, the IC50 amounted to 1.54e-05 M in the series with A2780 (Homo sapiens, A2780, 72 h); 0.042 µM at MCL-1; 1.14e-05 M with SUDHL5 [2] (Homo sapiens, SU-DHL-5, 72 h, 72 h); 1.68e-05 M with SUDHL5 [3] (Homo sapiens, SU-DHL-5, 5 h, read-out: Cytotox SUDHL5 [M] (median), SUDHL5 cells, cytotoxicity induction, CellTiter-Glo, 5 h, median); 1.13e-05 M in the series with SUDHL10 [4] (Homo sapiens, SU-DHL10, 72 h, 72 h); 2.97e-05 M in the series on SUDHL10 [6] (Homo sapiens, SU-DHL10, 5 h, read-out: Cytotox SUDHL10 [M] (median), SUDHL10 cells, cytotoxicity induction, CellTiter-Glo, 5 h, median).

As to `Cn1nc(COc2cncnc2)c2c1COCCCCn1c(C(=O)O)c(CCCOc3cccc4ccccc34)c3cccc-2c31` (single isomer, unassigned) [Example 211, 1-methyl-7-[3-(naphthalen-1-yloxy)propyl]-3-[(pyrimidin-5-yloxy)methyl]-1,10,11,12,13,15-hexahydropyrazolo[4′,3′:9,10][1,6]oxazacycloundecino[8,7,6-hi]indole-8-carboxylic Acid], the 50% effective concentration (EC50) in the series with SUDHL5 [1] is greater than 33 µM; in the series on SUDHL10 [5] (Homo sapiens, SU-DHL10, 3 h), greater than 33 µM. Also, the IC50 in the series on A2780 (Homo sapiens, A2780, 72 h) is greater than 3.3e-05 M; on MCL-1, 0.174 µM; in the series on SUDHL5 [2] (72 h incubation) it was 2.44e-06 M; with SUDHL5 [3] (setting [7]) it was greater than 3.3e-05 M; with SUDHL10 [4] (setting [8]) it was 4.44e-06 M; with SUDHL10 [6] (setting [9]), greater than 3.3e-05 M.

Turning to `Cn1ccnc1COCc1nn(C)c2c1-c1cccc3c(CCCOc4cccc5ccccc45)c(C(=O)O)n(c13)CCCCOC2` (single isomer, unassigned) [Example 232, (+)-1-methyl-3-{[(1-methyl-1H-imidazol-2-yl)methoxy]methyl}-7-[3-(naphthalen-1-yloxy)propyl]-1,10,11,12,13,15-hexahydropyrazolo[4′,3′:9,10][1,6]oxazacycloundecino[8,7,6-hi]indole-8-carboxylic Acid], the concentration giving a half-maximal response (EC50) in the series on SUDHL5 [1] stood at 9.57 µM; in the series on SUDHL10 [5], 13.1 µM. In addition, the IC50 with A2780 (Homo sapiens, A2780, 72 h) is greater than 3.3e-05 M; against MCL-1, 0.00974 µM; in the series with SUDHL5 [2] (72 h incubation), 2.94e-06 M; with SUDHL5 [3] (setting [7]), 7.5e-06 M; in the series with SUDHL10 [4] (setting [8]), 1.97e-05 M; with SUDHL10 [6] (setting [10]) it was 1.32e-05 M.

As for `Cn1ccnc1COCc1nn(C)c2c1-c1cccc3c(CCCOc4cccc5ccccc45)c(C(=O)O)n(c13)CCCCOC2` (single isomer, unassigned) [Example 233, (−)-1-methyl-3-{[(1-methyl-1H-imidazol-2-yl)methoxy]methyl}-7-[3-(naphthalen-1-yloxy)propyl]-1,10,11,12,13,15-hexahydropyrazolo[4′,3′:9,10][1,6]oxazacycloundecino[8,7,6-hi]indole-8-carboxylic Acid], the values for the EC50 with SUDHL5 [1] and in the series with SUDHL10 [5] were 25.3 µM and greater than 33 µM, respectively. Besides, the IC50 was greater than 3.3e-05 M in the series on A2780; 0.242 µM at MCL-1; 9.23e-06 M with SUDHL5 [2] (72 h incubation); 2.15e-05 M in the series with SUDHL5 [3] (setting [7]); 1.85e-05 M in the series with SUDHL10 [4] (72 h incubation); greater than 3.3e-05 M with SUDHL10 [6] (setting [10]).

Turning to `O=C(O)c1c(CCCOc2cccc3ccccc23)c2cccc3c2n1CCCCOCc1nn2c(c1-3)OCCC2` (single isomer, unassigned) [Example 248, 1-[3-(naphthalen-1-yloxy)propyl]-4,5,6,7,13,14-hexahydro-9H,12H-[1,3]oxazino[3″,2″:1′,5]pyrazolo[4′,3′:9,10][1,6]oxazacycloundecino[8,7,6-hi]indole-2-carboxylic Acid], the EC50 with SUDHL5 [1] was 3.17 µM; with SUDHL10 [5], 12.9 µM. The IC50 with A2780 was greater than 3.3e-05 M; in the series on A2780 (Homo sapiens, A2780, 72 h) it was 2.34e-05 M; on MCL-1, 0.00474 µM; in the series on SUDHL5 [2] (72 h incubation), 6.51e-06 M; in the series on SUDHL5 [3] (setting [7]), 3.38e-06 M; in the series on SUDHL10 [4] (setting [8]), 8.78e-06 M. Moreover, the IC50 with SUDHL10 [6] (setting [10]) was determined as 1.29e-05 M.

`O=C(O)c1c(CCCOc2cccc3ccccc23)c2cccc3c2n1CCCCOCc1nn2c(c1-3)OCCC2` (single isomer, unassigned) [Example 249, 1-[3-(naphthalen-1-yloxy)propyl]-4,5,6,7,13,14-hexahydro-9H,12H-[1,3]oxazino[3″,2″:1′,5′]pyrazolo[4′,3′:9,10][1,6]oxazacycloundecino[8,7,6-hi]indole-2-carboxylic Acid]: the 50% effective concentration (EC50) in the series with SUDHL5 [1] and in the series on SUDHL10 [5] was greater than 33 µM throughout. Also, the IC50 in the series on A2780 is 1.82e-05 M; at MCL-1, 0.0427 µM; in the series with SUDHL5 [2] (72 h incubation) it was 1.79e-05 M; in the series with SUDHL5 [3] (setting [7]), greater than 3.3e-05 M; with SUDHL10 [4] (72 h incubation), 7.58e-06 M; in the series on SUDHL10 [6] (setting [10]) it was greater than 3.3e-05 M.

For the molecule `O=C(O)c1c(CCCOc2cccc3ccccc23)c2cccc3c2n1CCCCOCc1nn2c(c1-3)COCC2` (single isomer, unassigned) [Example 251, 1-[3-(naphthalen-1-yloxy)propyl]-4,5,6,7,12,13-hexahydro-9H,15H-[1,4]oxazino[4″,3″:1′,5]pyrazolo[4′,3′:9,10][1,6]oxazacycloundecino[8,7,6-hi]indole-2-carboxylic acid-N-ethylethanamine Salt], the EC50 in the series with SUDHL5 [1] was greater than 33 µM; in the series with SUDHL10 [5] (Homo sapiens, SU-DHL10, 3 h), greater than 33 µM. Further, the IC50 with A2780 (Homo sapiens, A2780, 72 h) was 2.84e-05 M; against MCL-1, 0.0484 µM; in the series with SUDHL5 [2] (Homo sapiens, SU-DHL-5, 72 h, 72 h incubation) it was 6.23e-06 M; in the series on SUDHL5 [3] (setting [7]), greater than 3.3e-05 M; in the series with SUDHL10 [4] (setting [8]), 5.15e-06 M; in the series with SUDHL10 [6] (setting [9]), greater than 3.3e-05 M.

As to `Cc1ccc2c(C(C)CCOc3cccc4ccccc34)c(C(=O)O)n3c2c1-c1c(C)nn(C)c1COCCCC3` (single isomer, unassigned) [Example 257, 1,3,4-trimethyl-7-[4-(naphthalen-1-yloxy)butan-2-yl]-1,10,11,12,13,15-hexahydropyrazolo[4′,3′:9,10][1,6]oxazacycloundecino[8,7,6-hi]indole-carboxylic Acid], the EC50 in the series with SUDHL5 [1] and in the series on SUDHL10 [5] was greater than 33 µM each time. Also, the IC50 in the series on A2780 (Homo sapiens, A2780, 72 h) is 1.9e-05 M; against MCL-1, 0.669 µM; in the series on SUDHL5 [2] (72 h incubation), 2e-05 M; with SUDHL5 [3] (setting [7]) it was greater than 3.3e-05 M; in the series on SUDHL10 [4] (72 h incubation), 8.12e-06 M; with SUDHL10 [6] (setting [10]), greater than 3.3e-05 M.

On to `Cc1ccc2c(C(C)CCOc3cccc4ccccc34)c(C(=O)O)n3c2c1-c1c(C)nn(C)c1COCCCC3` (single isomer, unassigned) [Example 258, 1,3,4-trimethyl-7-[4-(naphthalen-1-yloxy)butan-2-yl]-1,10,11,12,13,15-hexahydropyrazolo[4′,3′:9,10][1,6]oxazacycloundecino[8,7,6-hi]indole-8-carboxylic Acid], for which the EC50 with SUDHL5 [1] and with SUDHL10 [5] was greater than 33 µM throughout. Also, the IC50 in the series with A2780 was 2.3e-05 M; on MCL-1 it was 12 µM; in the series on SUDHL5 [2] (72 h incubation), 1.92e-05 M; with SUDHL5 [3] (setting [7]), greater than 3.3e-05 M; in the series with SUDHL10 [4] (72 h incubation), 1.16e-05 M; in the series on SUDHL10 [6] (setting [10]), greater than 3.3e-05 M.

As to `Cc1ccc2c(C(C)CCOc3cccc4ccccc34)c(C(=O)O)n3c2c1-c1c(C)nn(C)c1COCCCC3` (single isomer, unassigned) [Example 259, 1,3,4-trimethyl-7-[4-(naphthalen-1-yloxy)butan-2-yl]-1,10,11,12,13,15-hexahydropyrazolo[4′3′:9,10][1,6]oxazacycloundecino[8,7,6-hi]indole-8-carboxylic Acid], the results for the EC50 with SUDHL5 [1] and in the series with SUDHL10 [5] were 31.3 µM and greater than 33 µM, respectively. Also, the IC50 in the series with A2780 is 2.21e-05 M; at MCL-1 it was 0.577 µM; with SUDHL5 [2] (72 h incubation), greater than 3.3e-05 M; with SUDHL5 [3] (setting [7]), greater than 3.3e-05 M; with SUDHL10 [4] (72 h incubation) it was 2.96e-05 M; with SUDHL10 [6] (setting [10]), greater than 3.3e-05 M.

Usually EC50 stands for the concentration at which the effect is half-maximal. Low readings indicate greater potency, high ones weaker potency.
